Data: a melting point compilation (Tetko et al.; mined from patent text by program, amines drawn as free bases though some values may be those of a salt)

SMILES | melting point [°C]
Cc1oc(-c2ccc(-c3ccc(-c4nc(CC(=O)OCc5ccccc5)c(C)o4)cc3)cc2)nc1CC(=O)OCc1ccccc1 | 162 to 168
CN1C(=O)[C@@](NC(=O)Nc2cccc(N(C)c3nnn[nH]3)c2)(C2CCCCC2)N=Cc2ccccc21 | 222 to 225
CC1=NN(c2ccc3c(=O)n(CC(C)C)c(CN)c(-c4ccccc4)c3c2)CO1 | 179 to 181
O=Cc1ccc(-c2cccc(-c3cn([C@H]4CN5CCC4CC5)nn3)c2)s1 | 150
CSc1ccc(N2CCOCC2)c(NC(=N)C(C)C)c1 | 155
Oc1cncc(Oc2ccccc2)c1 | 107
Nc1c(CC(=O)N2CCOCC2)cccc1C(=O)c1ccccc1 | 156 to 158
O=C(O)CCc1cc(C(c2cc(F)ccc2F)S(=O)(=O)c2ccc(Cl)cc2)c(F)cn1 (stereo not given) | 89 to 91
CC(C)OC(=O)C(C(=O)Nc1ccccc1)=C1SCS1 | 115 to 116
O=C1NC(=O)C(Cc2ccc(OCC3CN(c4ccccn4)CCO3)cc2)S1 (stereo not given) | 139 to 142
CC(=O)C(Cl)=CSC(C)(C)C | 73
CC(=O)Nc1ccc(C[C@H](NC(=O)N(CCOC(C)=O)CCc2ccccc2)C(=O)NCCN(C)C)cc1 | 87 to 100
O=C(O)/C=C/c1ccc(-c2nc3c(=O)n(CCC4CCCCCC4)c(=O)n(CCC4CCCCCC4)c3[nH]2)cc1 | > 250
CC(C)(CNc1ccnc2cc(Cl)ccc12)NCc1ccc(Cl)c(Cl)c1 | 178 to 179
CCOC(=O)c1c(C)[nH]c2ccc(OCC3CO3)cc12 (stereo not given) | 93 to 94
COc1ccc(N2CCN(S(=O)(=O)[C@H](C)[C@](O)(Cn3cncn3)c3ccc(F)cc3F)CC2)cc1 | 190 to 191
O=c1[nH]c2cscc2c(=O)n1CCN1CCN(c2ccc(Cl)cc2)CC1 | > 250
COc1cc(C)c(C(=O)c2c(Cl)cccc2Cl)cc1OC(F)F | 126 to 128
COc1cc2c(cc1C)CCN=C2C1(c2ccsc2)CC1 | 116 to 118
CC(C)Nc1ccccc1C(=O)O | 109 to 110
CCCCn1c(COCC)nc2c(N)nc3ccc(-c4cccnc4)cc3c21 | 220 to 222
CCC[C@H](C)C(=O)O[C@H]1CCC=C2C=C[C@H](C)[C@H](CC[C@@H]3C[C@@H](O)CC(=O)O3)[C@H]21 | 110 to 112
CCCN1CC(c2cccc(O)c2)CC1C (stereo not given) | 123 to 124
CC=CC1=NC(=Cc2cccs2)C(=O)O1 | 174 to 176
N#Cc1nn(-c2c(Cl)cc(Cl)cc2Cl)c(N)c1C#N | 267 to 271

SMILES | melting point [°C]
CCCCc1ncc(/C=C(\Cc2cccs2)C(=O)O)n1Cc1ccccc1[N+](=O)[O-] | 205 to 206
O=C(NCc1ccccc1Cl)c1cccnc1Oc1ccc(F)cc1F | 122 to 124
CC1(C)CCC(C)(C)c2cc(C#Cc3ccc(CO)cc3)ccc21 | 115 to 117
CCOC(=O)c1cn(Cc2ccc(OCc3nc(-c4ccco4)oc3C)cc2)nc1OCc1ccc(OCc2nc(-c3ccco3)oc2C)cc1 | 133 to 134
C=C(C)COc1c(C)c(CCC=O)c2c(c1C)CC(C)(C)O2 | 55.5 to 56
O=C1CCN2C(=O)c3cccc(NC(=O)Nc4ccccn4)c3C2C1 (stereo not given) | 254
COC(=O)C=C1NCCOC1=O | 76 to 79
Cc1c(-c2ccc(C3=CCN(C(=O)OC(C)(C)C)CC3)cc2)nc2n1CCc1ccccc1C2OC1CCN(C)CC1 (stereo not given) | 171
O=C(NCc1cccc(O)c1)c1[nH]c2ccc(Cl)cc2c1S(=O)(=O)c1cccc(Cl)c1 | 230 to 231
COc1c(Cl)ccc(-c2cc(N)c(Cl)c(C(=O)NOCc3cnc(Cl)s3)n2)c1F | 164 to 167
CC1(C)CC(n2ccc(-c3ccc(F)cc3)c2-c2ccncc2)CC(C)(C)N1 | 118 to 119
CC1(O)CC(=O)OC(CCc2ccc(OCc3ccc(F)cc3)cc2)C1Br (stereo not given) | 160 to 163
Cn1cc(-c2ccc(C(=O)N3Cc4cccn4Cc4ccccc43)c(Cl)c2)cn1 | 105 to 109
COCCOc1ccccc1S(=O)(=O)NC(=O)Nc1nc(C)nc(OC)n1 | 134 to 138
O=C1N(Cc2cnc(N3CCCCC3)s2)c2ccccc2C12COc1cc3c(cc12)OCO3 (stereo not given) | 195 to 197
Cc1ccc2oc(=O)n(-c3ccnc(N)c3)c2c1 | 173 to 174
COC(=O)c1cc(C(=O)NCCNC(C)=O)c2cc(Cc3ccc(F)cc3)cnc2c1O | 251 to 253
O=C(O)CCS(=O)(=O)CCCl | 138 to 139
O=c1c(-c2ccc(Cl)cc2)c[nH]n1-c1ncccn1 | 190 to 191
CCc1cccc(-c2ccc(S(=O)(=O)N3c4ccccc4CC3C(=O)NCc3ccc(CC(=O)O)cc3)cc2)c1 (stereo not given) | 98
C=CCn1cccc1C(N)=S | 80.5 to 83
CC(C)c1ccc(CCOc2ccnc3c(F)cccc23)cc1 | 56 to 60
O=C(O)COc1cccc2c1CC(SCc1ccccc1)c1sc(-c3ccc4ccccc4c3)nc1-2 (stereo not given) | 118 to 121
CCCNC(=O)C(C)NC(=O)C(NC(=O)OCc1ccccc1)C(Cc1ccccc1)C(=O)O (stereo not given) | 169 to 171
Nc1ccc(-c2nc3c(O)cccc3c(=O)[nH]2)cc1 | > 230
